# Test results taken from patent US10201517B2, “Brimonidine gel compositions and methods of use” (Galderma Laboratories, L.P., priority 2010, dated 2019).
# Test: Microscopic observation of gel compositions for methylparaben crystalline particles
# Format: physicochemical
# Method: Microscopic observations were performed on additional representative batches of brimonidine topical gel compositions and placebo gel compositions containing 1.25% (w/w) carbomer, POBM and other ingredients. The observations have been done on one tube of each batch, with the microscope Axiolab DRBKT Zeiss no. 023733.01 with a camera ICC Zeiss or the microscope Olympus BX60. The microscopic observations were done at 5° C. and room temperature.
# Numerous formulations with different ingredients and varying concentrations of the ingredients were made and tested for the presence of the paraben crystals by microscopic observations. The microbiological quality of the formulations was also analyzed by using acceptance-test criteria in preservative-efficacy testing (PET) in the United States Pharmacopeia (USP) and the European Pharmacopoeia (EP).
"recrystallization in formulation (addition of 0.1% of EDTA, POBM at 0.3% (w/w))",SMILES,crystalline particles in formulation (methylparaben replaced with Na POBM at 0.3% (w/w))
immediate recrystallization,"COC(=O)c1ccc(O)cc1 [methylparaben, methyl parahydroxybenzoate]",
,COC(=O)c1ccc([O-])cc1.[Na+] [Na POBM],crystalline particles of Na POBM were still observed
